Measurements published in patent US20190127366A1 (LifeSci Pharmaceuticals, Inc., priority 2015, published 2019).

Assays:
[1] = biological target: T1, human complement factor D (Homo sapiens, UniProt P00746); assay: In vitro enzyme inhibition (Z-Lys-SBzl/DTNB absorbance assay); type: biochemical; settings: Complement Factor D (R&D Systems), substrate Z-Lys-SBzl, A405 nm; read-out: CFD IC50
T1 construct: purchased R&D Systems 1824-SE
How it was run: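 Factor D (6.25 ng/μL before addition) preincubated 5 min RT with compound (8 points from 50 μM, 6-fold, 0.5% DMSO final) in 50 mM Tris/HCl pH 7.5, 1 M NaCl, then Z-Lys-SBzl/DTNB added (200 μM each before addition). A405 read kinetically every 30 s for 60 min; IC50 from variable-slope fit, controls with and without enzyme.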

[2] = test system: alternative pathway (AP) hemolytic activity; assay: AP hemolysis inhibition assay; type: cell-based; settings: Erythrocyte, 1 h; Normal Human Serum, chicken or rabbit erythrocytes, 60 min at 37° C., OD 414 nm
Experimental: The ability of the compounds disclosed herein to inhibit alternative pathway (AP) hemolytic activity was determined. Red blood cells (RBC), chicken or rabbit erythrocyctes (SbjBio), were washed three time using assay buffer containing 0.1% gelatin, 5 mM Veronal, 145 mM NaCl, 0.025% NaN3, 10 mM Mg-EGTA pH 7.3. In 100 μL reaction system, 1300 to 1500 ng/μL final concentration of Normal Human Serum (CompTech) was incubated with compound for 15 min at 37° C. Then 2×10^6 cells/well of chicken or rabbit erythrocytes in assay buffer were added and incubated for an additional 60 min at 37° C. Positive control (100% lysis) consists of serum and RBC, and negative control (0% lysis) consists of assay buffer and RBC only. Samples were centrifuged at 2000 g for 5 min, and supernatants collected. Optical density of the supernatant is monitored at 414 nm using Synergy 2 (BioTek). Percentage lysis in each sample is calculated relative to positive control (100% lysis).
Table 3 discloses the inhibitory activity of the compounds provided herein in the hemolysis assay.

T1 sequence (P00746 26-253): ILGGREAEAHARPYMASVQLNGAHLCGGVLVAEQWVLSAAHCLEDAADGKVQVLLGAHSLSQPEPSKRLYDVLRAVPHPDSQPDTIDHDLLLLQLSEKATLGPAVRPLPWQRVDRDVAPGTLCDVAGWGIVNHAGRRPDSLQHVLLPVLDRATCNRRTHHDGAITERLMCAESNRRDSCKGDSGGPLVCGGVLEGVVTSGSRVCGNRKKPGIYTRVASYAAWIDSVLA

Structure (SMILES)	IC50 [1] [µM]	EC50 [2] [µM]
NC(=O)c1nn(CC(=O)N2[C@@H]3CC[C@@H](C3)[C@H]2C(=O)NCc2cccc(Cl)c2F)c2ccccc12 [Example 38, 1-(2-((1R,3S,4S)-3-((3-chloro-2-fluorobenzyl)carbamoyl)-2-azabicyclo[2.2.1]heptan-2-yl)-2-oxoethyl)-1H-indazole-3-carboxamide]	0.1 to 1	1 to 10
NC(=O)c1nn(CC(=O)N2[C@@H]3CC[C@@H](C3)[C@H]2C(=O)Nc2cccc(Cl)n2)c2cc(F)ccc12 [Example 71, 1-(2-((1R,3S,4S)-3-((6-chloropyridin-2-yl)carbamoyl)-2-azabicyclo[2.2.1]heptan-2-yl)-2-oxoethyl)-6-fluoro-1H-indazole-3-carboxamide]	< 0.1	0.1 to 1
NC(=O)c1nn(CC(=O)N2CC[C@H]2C(=O)NCc2cccc(Cl)c2F)c2ccccc12 [Example 185, (S)-1-(2-(2-((3-chloro-2-fluorobenzyl)carbamoyl)azetidin-1-yl)-2-oxoethyl)-1H-indazole-3-carboxamide]	< 0.1	< 0.1
NC(=O)c1nn(CC(=O)N2C3CCC(C3)[C@H]2C(=O)Nc2cccc(Cl)n2)c2ccccc12 (stereo partly drawn) [Example 10, 1-(2-((3S)-3-((6-chloropyridin-2-yl)carbamoyl)-2-azabicyclo[2.2.1]heptan-2-yl)-2-oxoethyl)-1H-indazole-3-carboxamide]	< 0.1	0.1 to 1
NC(=O)c1nn(CC(=O)N2[C@@H]3CC[C@@H](C3)[C@H]2C(=O)Nc2cccc(Cl)n2)c2cc(N)ccc12 [Example 93, 6-amino-1-(2-((1R,3S,4S)-3-((6-chloropyridin-2-yl)carbamoyl)-2-azabicyclo[2.2.1]heptan-2-yl)-2-oxoethyl)-1H-indazole-3-carboxamide 2,2,2-trifluoroacetate]	0.1 to 1	0.1 to 1
NC(=O)c1nn(CC(=O)N2[C@H](C(=O)NCc3cccc(Cl)c3F)C[C@@H]3CCC[C@@H]32)c2cc(F)ccc12 [Example 167, 1-(2-((2S,3aS,6aS)-2-((3-chloro-2-fluorobenzyl)carbamoyl)hexahydrocyclopenta[b]pyrrol-1(2H)-y1)-2-oxoethyl)-6-fluoro-1H-indazole-3-carboxamide]	< 0.1	0.1 to 1
Cc1ccc2c(c1)c(C(N)=O)nn2CC(=O)N1[C@H](C(=O)Nc2cccc(Cl)n2)C[C@@H]2CCC[C@@H]21 [Example 168, 1-(2-((2S,3aS,6aS)-2-((6-chloropyridin-2-yl)carbamoyl)hexahydrocyclopenta[b]pyrrol-1(2H)-yl)-2-oxoethyl)-5-methy1-1H-indazole-3-carboxamide]	< 0.1	0.1 to 1
NC(=O)c1nn(CC(=O)N2CCCC[C@H]2C(=O)Nc2cccc(Cl)n2)c2ccccc12 [Example 21, (S)-1-(2-(2-((6-chloropyridin-2-yl)carbamoyl)piperidin-1-yl)-2-oxoethyl)-1H-indazole-3-carboxamide]	0.1 to 1	1 to 10
